Holding throughout (type): cell-based
Series [1] concerns the target T1, CBX8 bulk chromatin binding (Homo sapiens, UniProt Q9HC52).
T1 construct: endogenous in cells; host or cells: HEK293T (A19)
In words: Sequential salt extraction (SSE) in HEK293T cells. As to conditions: 10 μM.
Text: Sequential Salt Extraction. […] In this assay, bulk chromatin is sequentially resuspended in increasing concentrations of sodium chloride, and the proteins eluted with each wash are quantified using immunoblotting.
Next day, media was removed and cells were washed with PBS. […] After the 4-hour pretreatment, media was removed and cells were washed again with PBS. Cells were harvested and washed with PBS. (Note: it is critical to balance the cell numbers the same in the peptide treated group and the DMSO treated control group.) Cells were resuspended in 1 mL Buffer A (25 mM HEPES, 25 mM KCl, 5 mM MgCla, 0.1% NP-40, 10% Glycerol, 0.05 M EDTA, pH 7.8, plus protease inhibitor) was added to the cell pellet from centrifuge and rotated at 4° C. for 10 minutes (Porter et al.). Cells were spun down at 6500×g for 5 min at 4° C. […] (Note: it is critical to maintain the consistence for all washing steps with the subsequent NaCl containing mRIPA buffers) Then the sample was centrifuged for 3 min at 6500×g. The supernatant was saved in a separate tube, labeled as “0 mM fraction”—0 mM sequential salt extraction washing supernatant. […] The procedures for OmM was repeated for each salt concentrations in the subsequent washes. All washing supernatants were saved and labeled. […] ImageJ was employed to quantitate the protein bands.

In series [2] the test system is KLK3/TMPRSS2/AR/CBX2 expression. Nature of the series: Transcriptional fold change in LNCaP_NED cells. The following applies: 10 μM or 50 μM, 48 hours. From the text:
FIG. 12A). Neuroendocrine differentiation (NED) of prostate cancer induced by androgen deprivation. Representative pictures of LNCaP cells treated with normal media or charcoal-stripped serum (CSS) media for 6 days to induce neuroendocrine differentiation (LNCaP_NED). FIG. 12B). Transcriptional fold changes of KLK3/TMPRSS2/ENO2/CHGA were quantified normalized to control gene YWHAZ upon CSS media treatment for 6 or 9 days. FIG. 12C). Western blotting of CBX paralogs in LNCaP and LNCaP_NED cells generated from 14-day CSS treatment. FIG. 12D). Cell proliferation of LNCaP_NED following 5 days incubation with 2 or 10 μM SW2_152F. DMSO was used as negative control. FIG. 12E). LNCaP_NED cells were treated with 10 μM SW2_152F for 24 h-96 h. Cell morphology pictures were captured starting from 24 h. Average cell size were plotted at 24 h or 48 h for both DMSO group and compound treated group. FIG. 12F). LNCaP_NED cells were treated with 10 μM or 50 μM SW2_152F for 48 hours. […] Binding of H3K27me3 and CBX2 at specific genomic sites (KLK3/TMPRSS2, e: enhancer, p: promoter) were evaluated using chromatin immunoprecipitation-qPCR. For all experiments in the figure, error bars represent SEM n=3 biological replicates, p-values were calculated using two-tailed Student's t-test, *=p<0.05, **=p<0.01, ***=p<0.001, ****=p<0.0001. […]

The subject of series [3] is RWPE-1 cells, HEK293T cells. Nature of the series: Viability of non-transformed / control cells.
The target in series [4] is T2, CBX7 binding to chromatin (Homo sapiens, UniProt O95931).
T2 construct: endogenous in cells; host or cells: Hs68 fibroblasts (A17); HEK293T (A20)
In words: ChIP-qPCR in Hs68 fibroblast cells. As to conditions: 100 μM, 4 h. How it is done:
ChIP: Hs68 cells were seeded at 4×10^6 in a 10 cm cell culture plates 16 hours prior to treatment. Cells were treated with 100 μM SW2-110A or DMSO for four hours. ChIP was performed as described in Connelly et al., 2018. Birefly, cells were washed with PBS and fixed on the plate with CiA Fix buffer (50 mM HEPES, pH 8.0, 1 mM EDTA, 0.5 mM ETGA, 100 mM NaCl) and 1% formaldehyde for 10 min at room temperature. Crosslinking was quenched with 0.125 M glycine for 5 min at 4° C. Cells were washed once with PBS and lifted off the plate then resuspended in CiA NP Rinse buffer 1 (50 mM HEPES pH 8.0, 140 mM NaCl, 1 mM EDTA, 10% glycerol, 0.5% NP-40, 0.25% Triton X) for 10 min. Cells were pelleted at 1200×g for 5 min at 4° C. The supernatant was removed, and the cells were resuspended in CiA NP rinse buffer 2 (10 mM Tris pH 8.0, 1 mM EDTA, 0.5 mM EGTA, 200 mM NaCl). Cells were collected by centrifugation, 1200×g for 5 min. Supernatant was removed and the cells were washed twice with shearing buffer (0.1% SDS, 1 mM EDTA, 10 mM Tris HCl, pH 8.0). Cells were resuspended in shearing buffer and sonicated for 7 min with the probe (Branson). Lysate was centrifuged at 21,000×g for 15 min to remove debris. […]
qPCR: qPCR was performed on the isolated ChIP DNA using SYBR master mix (Thermo) and run on the BioRad CFX thermo cycler. […] Enrichment was determined by percent input. […]

Square brackets hold non-standard residues; d marks the D form. Peptide text beside a SMILES is read from it. * marks the point of attachment. Tyr(3-Cl) = N[C@@H](Cc1ccc(O)c(Cl)c1)C(=O)O; Benzoyl(3,5-Cl2) = O=C(c1cc(Cl)cc(Cl)c1)*; Lys(Et2) = CCN(CC)CCCC[C@H](N)C(=O)O; Gly(cPent) = N[C@H](C(=O)O)C1CCCC1; NH(propargyl) = C#CCN*

T1 sequence (Q9HC52 whole entry): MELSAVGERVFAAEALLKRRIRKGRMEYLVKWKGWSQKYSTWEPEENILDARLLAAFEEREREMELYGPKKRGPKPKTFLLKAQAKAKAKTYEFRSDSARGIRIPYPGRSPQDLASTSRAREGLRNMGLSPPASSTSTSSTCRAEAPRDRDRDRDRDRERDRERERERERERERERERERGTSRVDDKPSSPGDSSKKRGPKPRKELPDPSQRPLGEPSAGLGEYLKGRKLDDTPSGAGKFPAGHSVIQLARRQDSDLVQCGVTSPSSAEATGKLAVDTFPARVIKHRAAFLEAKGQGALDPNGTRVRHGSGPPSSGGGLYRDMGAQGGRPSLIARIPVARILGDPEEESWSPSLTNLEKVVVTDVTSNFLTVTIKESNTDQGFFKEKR
T2 sequence (O95931 whole entry): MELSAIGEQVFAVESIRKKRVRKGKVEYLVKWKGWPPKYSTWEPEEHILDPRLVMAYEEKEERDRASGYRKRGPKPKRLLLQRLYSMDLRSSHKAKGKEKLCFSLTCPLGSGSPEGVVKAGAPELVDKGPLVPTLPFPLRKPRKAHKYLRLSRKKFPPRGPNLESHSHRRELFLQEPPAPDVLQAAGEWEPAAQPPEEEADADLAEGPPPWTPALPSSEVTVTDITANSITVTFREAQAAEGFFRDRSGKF

Turning to `C#CCNC(=O)[C@H](CO)NC(=O)[C@H](CCCCN(CC)CC)NC(=O)[C@@H](NC(=O)[C@@H](NC(=O)[C@H](Cc1ccc(O)c(Cl)c1)NC(=O)c1cc(Cl)cc(Cl)c1)C1CCCC1)[C@@H](C)CC` [SW2_152F] ({Benzoyl(3,5-Cl2)}-[Tyr(3-Cl)][Gly(cPent)]I[Lys(Et2)]S-{NH(propargyl)}), in series [1], the “CBX8 binding to chromatin, SSE” value is on record as “only a modest change”. For the same compound, in series [2], the CBX2 expression entry was “remained unchanged”; the “expression of AR and AR-target genes (TMPRSS2 and KLK3)” value is “significantly increased”. For the same compound, the “viability of RWPE-1 cells or HEK293T cells” value in series [3] was “did not affect the viability”. For the same compound, the “CBX7 binding at target loci, ChIP-qPCR” value in series [4] is recorded as “not CBX7 binding”.
